The assay deals with Ubiquitin carboxyl-terminal hydrolase 30 (Homo sapiens) (UniProt Q70CQ3). The experiment in a line: ubiquitin-specific protease 30 DUB inhibitors, concentration-effect, biochemical, validation of primary actives (AID 1645865). The conditions noted are these: purified USP30, Ub-rhodamine cleavage, fluorescence, 2 h.

Molecules are shown by their SMILES. The source made the active and inactive calls.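 Rule for the calls: active = maximal inhibition of the USP30 enzyme reaching 30% or more across the dose series; inactive = the rest.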

Chain of Ubiquitin carboxyl-terminal hydrolase 30 (Homo sapiens) (Q70CQ3 whole entry, looked up): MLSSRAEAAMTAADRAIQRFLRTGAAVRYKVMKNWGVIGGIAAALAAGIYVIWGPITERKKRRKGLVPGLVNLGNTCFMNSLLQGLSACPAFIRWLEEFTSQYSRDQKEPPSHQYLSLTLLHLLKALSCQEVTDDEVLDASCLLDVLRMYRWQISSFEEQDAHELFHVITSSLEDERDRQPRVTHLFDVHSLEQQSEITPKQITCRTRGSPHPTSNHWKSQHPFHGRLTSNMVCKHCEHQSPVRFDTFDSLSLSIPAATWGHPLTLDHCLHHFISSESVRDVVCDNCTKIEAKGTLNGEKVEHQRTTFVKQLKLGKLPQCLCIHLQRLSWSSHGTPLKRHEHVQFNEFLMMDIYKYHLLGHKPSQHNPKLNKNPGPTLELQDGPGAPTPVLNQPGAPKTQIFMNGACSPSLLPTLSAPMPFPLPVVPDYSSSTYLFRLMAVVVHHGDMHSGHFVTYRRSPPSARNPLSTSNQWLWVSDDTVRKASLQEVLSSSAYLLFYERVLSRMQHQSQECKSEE

With `COc1ccc(-c2cc(C(=O)N3CCN(c4ccc([N+](=O)[O-])cc4)CC3)[nH]n2)cc1`, the IC50 is > 50 µM (inactive). As for `Cc1cc(NC(=O)c2cc(-c3cccnc3)n[nH]2)ccc1Br`, the concentration for half-maximal inhibition (IC50) was 1.26 µM. For `COc1cccc(NC(=O)Nc2nccn(-c3ccc(F)cc3)c2=O)c1` the value was 21.2 µM; for `CCCCCn1c(Sc2ccc(C)cc2)nc2c1c(=O)[nH]c(=O)n2C`, 11.3 µM; for `O=C(CC1Oc2ccccc2NC1=O)Nc1ccccc1Br` (stereo unspecified), 44.3 µM.

As to `COc1ccc(C)cc1NC(=O)C1CC(=O)Nc2nc(SCc3ccccc3)nn21` (stereo unspecified), the concentration for half-maximal inhibition (IC50) was 15.7 µM. On to `O=S(=O)(c1ccc2c(c1)OCCO2)N(Cc1ccccc1)Cc1nnc(-c2ccccc2)o1`, for which the IC50 was > 50 µM (inactive). For `Cn1c(=O)c(C(=O)CN2CCN(c3ccc(O)cc3)CC2)c(N)n(Cc2ccccc2)c1=O` the value was > 50 µM (inactive); for `Cc1ccccc1C(=O)OCCN1C(=O)c2cccc3c(N4CCOCC4)ccc(c23)C1=O`, > 50 µM (inactive). As for `CCCCCCCc1cc(O)cc(OC(=O)c2c(CCCCCCC)cc(O)cc2O[C@H]2O[C@H](C(O)CO)[C@@H](O)[C@@H]2O)c1` (stereo partly specified), the IC50 was 40.3 µM.

With `COc1ccc(OC)c(NC(=O)c2cc(Cl)ccc2OC)c1`, the IC50 is 1.59 µM. As to `Cn1c(SCc2ccccc2)nnc1-c1csc(-c2ccccc2)n1`, the IC50 was 22.5 µM. As for `CC1(C)Cc2c(c(-c3ccco3)nc3sc4c(SCCCc5ccccc5)ncnc4c23)CO1`, the IC50 is > 50 µM (inactive). For `CC(NC(=O)c1ccccc1)c1nc2ccccc2n1CC(=O)Nc1ccc2c(c1)OCO2` (stereo unspecified) the value was 2.06 µM. The same measure for `O=C(Nc1cc(F)c2nc(N3CCOCC3)ccc2c1)c1ccc(Br)o1`: > 50 µM (inactive); for `Fc1ccc(Cc2nc(-c3ccc4nncn4c3)no2)cc1`: > 50 µM (inactive); for `CN=C(N)NCCC/C=C/CCCC(C)CC(C)C1OC(=O)/C=C/C(C)C(O)CC(O)C(C)C(O)CCC(C)C(O)CC2(O)OC(CC(OC(=O)CC(=O)O)CC(O)CC(O)C(C)C(O)/C=C/C1C)CC(O)C2O` (stereo unspecified): 27.5 µM. For `Cn1ncc2c(=O)n(Cc3cccc(Cl)c3)cnc21` the value was > 50 µM (inactive); for `O=C(NCc1ccc2c(c1)OCO2)c1nnc(Cc2ccc(F)cc2)o1`, 44.2 µM. Regarding `O=C(Cc1cccc2ccccc12)Nc1nc2ccc(F)cc2s1`, the concentration for half-maximal inhibition (IC50) was 45.4 µM. Turning to `O=C(Cn1c(=O)n(CC(=O)NC2CCCC2)c(=O)c2ccccc21)Nc1cc(Cl)ccc1Cl`, the IC50 was 2.42 µM. For `Fc1ccc(-c2noc(-c3nnc(NCc4cccnc4)c4ccccc34)n2)cc1` the value was 1.92 µM; for `COc1ccc2c(c1)c(N1CCCC1=O)c(C(=O)NCc1cccc(OC)c1OC)n2C`, > 50 µM (inactive); for `N#Cc1ccc(COC(=O)c2ccc3ccccc3n2)cc1`, > 50 µM (inactive). For `COc1ccc(C(C(=O)NC2CCCCC2)N(C(=O)CCCC(=O)Nc2ccccn2)c2ccccc2C)cc1` (stereo unspecified) the value was 19.3 µM; for `Cc1ccc(NC(=O)Cn2cc(S(=O)(=O)N3CCCC3)ccc2=O)cc1`, 20.3 µM; for `O=C(Nc1ccccc1Br)c1ccn(COc2ccccc2F)n1`, 14.8 µM. On to `Cc1ccc(O)c(-c2cc(C(=O)Nc3ccccc3Cl)[nH]n2)c1`, for which the half-maximal inhibitory concentration (IC50) is 5.93 µM. For `Cc1nn(C)c2c1[C@@H](c1ccc(F)c(Br)c1)[C@H](NC(=O)c1ccccc1)C(=O)N2` the value was > 50 µM (inactive); for `COc1ccc(CC(NC(C)=O)C(=O)NC2CCN(c3c(Cc4ccccc4)c(C)nc4ncnn34)CC2)cc1OC` (stereo unspecified), > 50 µM (inactive). As to `Cc1ccc(NC(=O)CSc2nc3c(cc2C#N)C(=O)CCC3)cc1`, the IC50 was 31.4 µM. The same measure for `Cc1cccc2sc(NC(=O)c3nnn(-c4ccc(F)cc4)n3)nc12`: > 50 µM (inactive); for `O=C(Nc1nc2c(ccc3ccccc32)s1)c1cccc(Br)c1`: 2.44 µM; for `CNc1nc2c(c(=O)n1C)CN(C(=O)Nc1cccc3ccccc13)CC2`: > 50 µM (inactive). For `CC1Cc2ccccc2N1C(=O)Cn1c(=O)cc(O)c2ccccc21` (stereo unspecified) the value was > 50 µM (inactive); for `Cc1ccc(Cn2cc(-c3noc(-c4ccc[nH]4)n3)nn2)cc1`, 23.8 µM. Consider `CC1CCCCN1CCCNC(=O)c1ccc(N2CCc3ccccc32)s1` (stereo unspecified), for which the IC50 was 30.9 µM. For `COc1cccc2c1NC(=O)C21CCN(C(=O)Nc2cccc3ccccc23)CC1` the value was > 50 µM (inactive). `Cc1sc2nc(CN3CCCC3)nc(NCCc3ccc(Cl)cc3)c2c1C`: the IC50 was > 50 µM (inactive).

`CCN(C(=O)c1cc2c(Cl)nc3ccccc3c2s1)c1ccccc1F`: the IC50 was > 50 µM (inactive). The same measure for `O=C(Nc1ccc2nccnc2c1)c1cccc(C(F)(F)F)c1`: > 50 µM (inactive). With `O=C(/C=C/c1ccco1)c1cccc([N+](=O)[O-])c1`, the IC50 was 40.1 µM. The same measure for `CSc1cccc(NC(=O)COc2cccc3ccccc23)c1`: 1.46 µM; for `O=C(NC1CCS(=O)(=O)C1)c1ccc(N2CCC(Cc3ccccc3)CC2)nn1` (stereo unspecified): > 50 µM (inactive); for `COc1ccc(-c2cc(C(C)=O)c(C)n2CCC(=O)Nc2ccc(OC)cc2OC)cc1`: 32.2 µM.

As to `Cc1cc(C)c2sc(N(CCCn3ccnc3)C(=O)Cc3ccccc3)nc2c1`, the IC50 is 17.5 µM. For `N#Cc1ccc(NC(=O)Nc2cccn(Cc3ccccc3Br)c2=O)cc1` the value was > 50 µM (inactive); for `Cc1cccc(C(=O)N2CCN3Cc4ccccc4N(C)CC3C2)c1` (stereo unspecified), > 50 µM (inactive); for `O=C(Nc1cccc(C(F)(F)F)c1)c1cc2c(s1)-c1ccccc1OC2`, 2.13 µM. For `O=C(CSc1nnnn1-c1ccccc1)Nc1ccccc1` the value was 31.9 µM; for `Cc1ccc2[nH]c3c(=O)n(CC4CCCO4)cnc3c2c1` (stereo unspecified), 17.9 µM. Turning to `O=C(Cn1nnc(-c2ccc(F)cc2)n1)NCCc1ccccc1`, the IC50 is > 50 µM (inactive). The same measure for `CCn1c(SCc2nc(N)c3ccccc3n2)nc2ccccc21`: > 50 µM (inactive); for `Cc1cc(C#N)c2c(C)ccc(C(C)C)cc1-2`: > 50 µM (inactive). For `CN(C)S(=O)(=O)N1CCCC2(C1)Nc1cccnc1NC2=NC1CCCC1` (stereo unspecified) the value was > 50 µM (inactive); for `Cc1ccc(CN2C(=O)c3cc4ccccc4n3CC2(C)C(=O)NCc2ccccc2)o1` (stereo unspecified), 14.8 µM. For `COc1ccc(NC(=O)CC(=O)c2ccc([N+](=O)[O-])cc2)cc1S(=O)(=O)Nc1ccc(Br)cc1` the value was 33 µM.

Regarding `COc1ccc2nc3c(cc2c1)c(=O)n(C)c1c3c(=O)n(-c2ccccc2)c(=O)n1-c1ccccc1`, the IC50 was > 50 µM (inactive). For `c1ccc(-c2nc(-c3nnn(-c4ccccc4)c3-c3ccncc3)no2)cc1`, the IC50 is 2.29 µM. For `COc1cc(/C=C/C(=O)OCC(=O)Nc2ccc([N+](=O)[O-])cc2OC)ccc1O` the value was 28 µM. For `COc1ccc(CC(=O)NCc2ccc3[nH]c(C)cc3c2)cc1` the value was > 50 µM (inactive); for `Cc1cccc(C(=O)Nc2ccc3c(c2)nc(CSc2nccc(C)n2)n3C)c1`, > 50 µM (inactive). The same measure for `CC(C)(C)C(=O)NC(c1ccccc1)c1nnc(N2CCOCC2)o1` (stereo unspecified): > 50 µM (inactive). Take `COc1ccc(C)cc1NC(=O)Cc1csc(NC(=O)c2ccc(=O)[nH]c2)n1`: the IC50 was > 50 µM (inactive). Turning to `Cc1ccc(-c2ncc(C(=O)NCc3cccc(C)c3)c(-c3ccncc3)n2)cc1`, the IC50 was > 50 µM (inactive). For `Cc1ccc(CN2CCCn3nc(C(=O)NCc4ccccc4C)cc3C2=O)cc1` the value was 31.5 µM; for `CCCn1c(=O)c(-c2ccc(C(=O)NCc3ccc(OC)cc3)cc2)nc2cccnc21`, 1.84 µM; for `COc1ccc(OC)c(-n2c(SCC(=O)N3CCc4ccccc43)nnc2-c2cccc(S(=O)(=O)N(C)C)c2)c1`, 3.12 µM. For `CC1=C[C@H]2N(c3ccc(C)cc31)[C@H](C(=O)c1cccs1)[C@@H](C(=O)c1ccc(F)cc1)[C@]21C(=O)Nc2ccccc21` the value was > 50 µM (inactive); for `COc1cccc(NC(=O)C2C3C=CC4(O3)C2C(=O)N(CCc2ccccc2Cl)C4C(=O)NC2CCCCC2)c1` (stereo unspecified), 41.2 µM. The same measure for `O=C(NCCCc1nc2ccccc2n1Cc1c(Cl)cccc1Cl)c1ccco1`: 25 µM; for `Cc1oc(C2CC2)cc1C(=O)N1CCC2(CC1)CC1(CO2)Nc2ccccc2-n2cccc21` (stereo unspecified): > 50 µM (inactive); for `O=S(=O)(c1cccc(F)c1)N1CCN(c2nnnn2-c2ccccc2)CC1`: 31.4 µM. As to `O=C(Nc1ccc(N2CCOCC2)cc1)c1ccc(-c2ccc(N3CCCC3)nn2)cc1`, the IC50 is > 50 µM (inactive). For `Cc1cc(C(=O)N2CCOCC2)c(C)n1-c1ccc(O)cc1` the value was > 50 µM (inactive).

`CCOc1ccc(-c2noc(-c3nn(-c4cccc(OC)c4)ccc3=O)n2)cc1`: the IC50 was 3.45 µM.

On to `COc1ccc(OC)c(NC(=O)Cn2c(=O)n(CC3CCC(C(=O)NCCc4ccccc4)CC3)c(=O)c3ccccc32)c1` (stereo unspecified), for which the IC50 was 1.77 µM. In the case of `CCc1ccc(NC(=O)Cc2nnc3cc(-c4nc(C)no4)ccn23)cc1`, the concentration for half-maximal inhibition (IC50) is 2.37 µM.

For the molecule `Cc1ccc(C)c(-c2cc3c(=O)n(Cc4noc(CN5CCCCC5)n4)ccn3n2)c1`, the IC50 is > 50 µM (inactive).

As to `CCOC(=O)c1ccc(-n2c(=O)c(C#N)cc3c(=O)n4ccccc4nc32)cc1`, the IC50 was > 50 µM (inactive). The same measure for `CN(C)CCc1cc2c(c3c1ccc1ccccc13)OCO2`: > 5 µM (inactive); for `O=S(=O)(c1cccc(F)c1)N1CCc2nc3ccccc3n2CC1`: 3.76 µM; for `O=C(Cn1c(=O)n(Cc2ccco2)c(=O)c2ccc(C(=O)NC3CCCC3)cc21)NCc1ccco1`: > 50 µM (inactive). Consider `CC(=O)c1ccc(NC(=O)C[n+]2cc(-c3ccc(Cl)cc3)n3c2CCC3)cc1`, for which the IC50 is > 50 µM (inactive). For `CCOc1cc(N2CCOCC2)c(OCC)cc1NC(=O)c1cc(-c2ccncc2)nc2ccccc12` the value was 3.68 µM; for `O=C(Cn1cnc(-c2noc(-c3ccncc3)n2)c1)N1CCN(c2ccccc2F)CC1`, > 50 µM (inactive).
